Key:
Format in all cases: functional
Candida parapsilosis = test: Fungicidal activity against Candida parapsilosis ATCC 22019 incubated for 24 hrs followed by replacement of medium without compound measured after 48 hrs; conditions: Lodderomyces parapsilosis
[1] = system: Meyerozyma guilliermondii; test: Fungicidal activity against Candida guilliermondii C94 incubated for 24 hrs followed by replacement of medium without compound measured after 48 hrs
Clavispora lusitaniae = test: Fungicidal activity against Candida lusitaniae C18 incubated for 24 hrs followed by replacement of medium without compound measured after 48 hrs
Candida albicans = test: Fungicidal activity against Candida albicans ATCC 10231 incubated for 24 hrs followed by replacement of medium without compound measured after 48 hrs
Nakaseomyces glabratus = test: Fungicidal activity against Candida glabrata ATCC 90030 incubated for 24 hrs followed by replacement of medium without compound measured after 48 hrs
[Candida] auris = Fungicidal activity against Candida auris ATCC CMYA-5001 incubated for 24 hrs followed by replacement of medium without compound measured after 48 hrs; conditions: Candidozyma auris

Measured: MFC

C=CC(=O)Nc1cc(C(=O)NCc2cn([C@H]3O[C@H](CO)[C@@H](O)[C@H](O)[C@@H]3O)nn2)cc(C(=O)NCc2cn([C@H]3O[C@H](CO)[C@@H](O)[C@H](O)[C@@H]3O)nn2)c1
not listed: [Candida] auris
> 10000 µg/mL: all other assays above

C=CC(=O)Nc1cc(C(=O)NCc2cn([C@H]3O[C@@H](C)[C@@H](O)[C@@H](O)[C@@H]3O)nn2)cc(C(=O)NCc2cn([C@H]3O[C@@H](C)[C@@H](O)[C@H](O)[C@@H]3O)nn2)c1
> 10000 µg/mL: all assays above

CCC(=O)Nc1cc(C(=O)NCc2cn([C@@H]3O[C@H](CO)[C@H](O)[C@H](O)[C@H]3O)nn2)cc(C(=O)NCc2cn([C@@H]3O[C@H](CO)[C@H](O)[C@@H](O)[C@@H]3O)nn2)c1
10000 µg/mL: [1] | Nakaseomyces glabratus

C=CS(=O)(=O)Nc1cc(C(=O)NCc2cn([C@H]3O[C@@H](C)[C@@H](O)[C@@H](O)[C@@H]3O)nn2)cc(C(=O)NCc2cn([C@H]3O[C@@H](C)[C@@H](O)[C@H](O)[C@@H]3O)nn2)c1
> 10000 µg/mL: all assays above

C=CS(=O)(=O)Nc1cc(C(=O)NCc2cn([C@@H]3O[C@H](CO)[C@H](O)[C@H](O)[C@H]3O)nn2)cc(C(=O)NCc2cn([C@@H]3O[C@H](CO)[C@H](O)[C@@H](O)[C@@H]3O)nn2)c1
10000 µg/mL: [Candida] auris | [1] | Nakaseomyces glabratus
> 10000 µg/mL: all other assays above

— ChEMBL document CHEMBL6078671, “Synthesis of aromatic glycoconjugates as anti-fungal agents against Candida spp. and assessment of their covalent crosslinking capabilities” (2025)
